pIC50: −log10 of the molar value.
Test system: SYO-1 complex spheroid growth, percent test/control
Assay: Anticancer human tumor SYO-1 cell line growth inhibition [Asc];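 also: compound exposure lasted 7 days after spheroids grew 3 days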;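 as to viability, T/C: 100% = DMSO vehicle control viability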
Settings: for pIC50: curve of first compound; for viability, T/C: stronger effect = lower value; active = viability on the fitted dose curve at most 10% of control; inactive = the rest
How it was run: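 Stromal components (HUVEC and hMSC) are co-assembled with the cancer cells into multicellular spheroids. Drugs are then added singly or paired, at concentrations falling by half-log increments from a clinically achievable maximum, capped at 10 microM without known Cmax.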

[1] = second compound 0.00949 µM, first compound 0.00316 µM
[2] = second compound 0.00949 µM, first compound 0.01 µM
[3] = second compound 0.00949 µM, first compound 0.0316 µM
[4] = second compound 0.00949 µM, first compound 0.1 µM
[5] = second compound 0.03 µM, first compound 0.00316 µM
[6] = second compound 0.03 µM, first compound 0.01 µM
[7] = second compound 0.03 µM, first compound 0.0316 µM
[8] = second compound 0.03 µM, first compound 0.1 µM
[9] = second compound 0.0949 µM, first compound 0.00316 µM
[10] = second compound 0.0949 µM, first compound 0.01 µM
[11] = second compound 0.0949 µM, first compound 0.0316 µM
[12] = second compound 0.0949 µM, first compound 0.1 µM
[13] = second compound 0.3 µM, first compound 0.00316 µM
[14] = second compound 0.3 µM, first compound 0.01 µM
[15] = second compound 0.3 µM, first compound 0.0316 µM
[16] = second compound 0.3 µM, first compound 0.1 µM
[17] = second compound 0.949 µM, first compound 0.00316 µM
[18] = second compound 0.949 µM, first compound 0.01 µM
[19] = second compound 0.949 µM, first compound 0.0316 µM
[20] = second compound 0.949 µM, first compound 0.1 µM
[21] = second compound 3 µM, first compound 0.00316 µM
[22] = second compound 3 µM, first compound 0.01 µM
[23] = second compound 3 µM, first compound 0.0316 µM
[24] = second compound 3 µM, first compound 0.1 µM

COc1c(OCCCN2CCOCC2)ccc2c3n(c(=NC(=O)c4cnc(N)nc4)nc12)CCN3 + CCN1C(C(=O)NC23CCC(C(=O)O)(CC2)CC3)C(c2cccc(Cl)c2F)C2(C(=O)Nc3cc(Cl)ccc32)C12CCCCC2
6.91: pIC50 (second compound 0.0949 µM)
> 8.50: pIC50 (second compound 0.3 µM) | pIC50 (second compound 0.949 µM) | pIC50 (second compound 3 µM)
inactive: viability, T/C [1] 110% | viability, T/C [2] 109% | viability, T/C [3] 101% | viability, T/C [4] 85.2% | viability, T/C (second compound 0.00949 µM, first compound 0.316 µM) 75.4% | viability, T/C (second compound 0.00949 µM, first compound 1 µM) 43.4% | viability, T/C [5] 103% | viability, T/C [6] 103% | viability, T/C [7] 96.9% | viability, T/C [8] 80.8% | viability, T/C (second compound 0.03 µM, first compound 0.316 µM) 69.3% | viability, T/C (second compound 0.03 µM, first compound 1 µM) 30.6% | viability, T/C [9] 85.8% | viability, T/C [10] 86.3% | viability, T/C [11] 77.2% | viability, T/C [12] 52.1% | viability, T/C (second compound 0.0949 µM, first compound 0.316 µM) 32.2% | viability, T/C (second compound 0.0949 µM, first compound 1 µM) 16% | viability, T/C [13] 20.3% | viability, T/C [14] 23.4% | viability, T/C [15] 19.3% | viability, T/C [16] 16.3% | viability, T/C (second compound 0.3 µM, first compound 0.316 µM) 12%
6.10: pIC50 (second compound 0.00949 µM)
6.27: pIC50 (second compound 0.03 µM)
active: viability, T/C (second compound 0.3 µM, first compound 1 µM) 2.7% | viability, T/C [17] 2.01% | viability, T/C [18] 3.89% | viability, T/C [19] 3.28% | viability, T/C [20] 2.38% | viability, T/C (second compound 0.949 µM, first compound 0.316 µM) 3.39% | viability, T/C (second compound 0.949 µM, first compound 1 µM) 0.44% | viability, T/C [21] 1.01% | viability, T/C [22] 1.03% | viability, T/C [23] 1.75% | viability, T/C [24] 0.55% | viability, T/C (second compound 3 µM, first compound 0.316 µM) 0.57% | viability, T/C (second compound 3 µM, first compound 1 µM) 0.45%

NC(=O)C(=Cn1cnc(-c2cc(C(F)(F)F)cc(C(F)(F)F)c2)n1)c1cncnc1 + CCN1C(C(=O)NC23CCC(C(=O)O)(CC2)CC3)C(c2cccc(Cl)c2F)C2(C(=O)Nc3cc(Cl)ccc32)C12CCCCC2
7.38: pIC50 (second compound 0.0949 µM)
active: viability, T/C (second compound 0.00949 µM, first compound 0.3 µM) 9.44% | viability, T/C (second compound 0.03 µM, first compound 0.3 µM) 5.52% | viability, T/C (second compound 0.0949 µM, first compound 0.3 µM) 1.56% | viability, T/C (second compound 0.3 µM, first compound 0.03 µM) 8.55% | viability, T/C (second compound 0.3 µM, first compound 0.0949 µM) 1.72% | viability, T/C (second compound 0.3 µM, first compound 0.3 µM) 0.32% | viability, T/C (second compound 0.949 µM, first compound 0.000949 µM) 2.25% | viability, T/C (second compound 0.949 µM, first compound 0.003 µM) 1.92% | viability, T/C (second compound 0.949 µM, first compound 0.00949 µM) 1.01% | viability, T/C (second compound 0.949 µM, first compound 0.03 µM) 0.78% | viability, T/C (second compound 0.949 µM, first compound 0.0949 µM) 0.55% | viability, T/C (second compound 0.949 µM, first compound 0.3 µM) 1.54% | viability, T/C (second compound 3 µM, first compound 0.000949 µM) 0.73% | viability, T/C (second compound 3 µM, first compound 0.003 µM) 1.1% | viability, T/C (second compound 3 µM, first compound 0.00949 µM) 0.93% | viability, T/C (second compound 3 µM, first compound 0.03 µM) 1.16% | viability, T/C (second compound 3 µM, first compound 0.0949 µM) 1.19% | viability, T/C (second compound 3 µM, first compound 0.3 µM) 2%
> 9.02: pIC50 (second compound 0.3 µM) | pIC50 (second compound 0.949 µM) | pIC50 (second compound 3 µM)
inactive: viability, T/C (second compound 0.00949 µM, first compound 0.000949 µM) 96.3% | viability, T/C (second compound 0.00949 µM, first compound 0.003 µM) 96.1% | viability, T/C (second compound 0.00949 µM, first compound 0.00949 µM) 99.3% | viability, T/C (second compound 0.00949 µM, first compound 0.03 µM) 87.8% | viability, T/C (second compound 0.00949 µM, first compound 0.0949 µM) 87.5% | viability, T/C (second compound 0.03 µM, first compound 0.000949 µM) 99.4% | viability, T/C (second compound 0.03 µM, first compound 0.003 µM) 94.6% | viability, T/C (second compound 0.03 µM, first compound 0.00949 µM) 90.1% | viability, T/C (second compound 0.03 µM, first compound 0.03 µM) 90.5% | viability, T/C (second compound 0.03 µM, first compound 0.0949 µM) 69.4% | viability, T/C (second compound 0.0949 µM, first compound 0.000949 µM) 83.4% | viability, T/C (second compound 0.0949 µM, first compound 0.003 µM) 80.9% | viability, T/C (second compound 0.0949 µM, first compound 0.00949 µM) 76.6% | viability, T/C (second compound 0.0949 µM, first compound 0.03 µM) 64.6% | viability, T/C (second compound 0.0949 µM, first compound 0.0949 µM) 14.6% | viability, T/C (second compound 0.3 µM, first compound 0.000949 µM) 20.1% | viability, T/C (second compound 0.3 µM, first compound 0.003 µM) 21.6% | viability, T/C (second compound 0.3 µM, first compound 0.00949 µM) 12.9%
6.78: pIC50 (second compound 0.00949 µM)
6.87: pIC50 (second compound 0.03 µM)

NC1CCC(NC2CC2c2ccccc2)CC1 (stereo unspecified) + CCN1C(C(=O)NC23CCC(C(=O)O)(CC2)CC3)C(c2cccc(Cl)c2F)C2(C(=O)Nc3cc(Cl)ccc32)C12CCCCC2
< 7.00: pIC50 (second compound 0.00949 µM) | pIC50 (second compound 0.03 µM) | pIC50 (second compound 0.0949 µM)
active: viability, T/C (second compound 0.949 µM, first compound 0.000316 µM) 1.71% | viability, T/C (second compound 0.949 µM, first compound 0.001 µM) 2.22% | viability, T/C [17] 1.78% | viability, T/C [18] 1.87% | viability, T/C [19] 1.95% | viability, T/C [20] 1.33% | viability, T/C (second compound 3 µM, first compound 0.000316 µM) 1.21% | viability, T/C (second compound 3 µM, first compound 0.001 µM) 1.53% | viability, T/C [21] 2.09% | viability, T/C [22] 1.25% | viability, T/C [23] 1.49% | viability, T/C [24] 1.44%
> 9.50: pIC50 (second compound 0.3 µM) | pIC50 (second compound 0.949 µM) | pIC50 (second compound 3 µM)
inactive: viability, T/C (second compound 0.00949 µM, first compound 0.000316 µM) 102% | viability, T/C (second compound 0.00949 µM, first compound 0.001 µM) 96.7% | viability, T/C [1] 88% | viability, T/C [2] 88% | viability, T/C [3] 94.2% | viability, T/C [4] 91.1% | viability, T/C (second compound 0.03 µM, first compound 0.000316 µM) 98% | viability, T/C (second compound 0.03 µM, first compound 0.001 µM) 96.8% | viability, T/C [5] 88.9% | viability, T/C [6] 84.6% | viability, T/C [7] 85.9% | viability, T/C [8] 89.5% | viability, T/C (second compound 0.0949 µM, first compound 0.000316 µM) 84.9% | viability, T/C (second compound 0.0949 µM, first compound 0.001 µM) 74.4% | viability, T/C [9] 57.8% | viability, T/C [10] 53.4% | viability, T/C [11] 55.2% | viability, T/C [12] 51.7% | viability, T/C (second compound 0.3 µM, first compound 0.000316 µM) 18.6% | viability, T/C (second compound 0.3 µM, first compound 0.001 µM) 18.2% | viability, T/C [13] 6.03% | viability, T/C [14] 8.44% | viability, T/C [15] 13.7% | viability, T/C [16] 11.2%
